Several values for one entry are separate records, joined by “and”; a condition that tells them apart may be missing. Equal entries are not always repeated.
Assays:
[1] = tested on: unresectable, locally advanced stage III NSCLC; assay: Phase 2 clinical trial of pembrolizumab plus platinum doublet chemotherapy and concurrent radiotherapy: ORR, duration of response, PFS, OS by BICR per RECIST v1.1; assay type: in vivo, human; details: pembrolizumab plus CCRT; for 6-mo OS rate / 6-mo PFS rate / Response duration ≥6 month, % / Duration of response, median (range): Kaplan-Meier estimate; for Duration of response, median (range): + = no progressive disease at last assessment; for ORR, % [90% CI]: patients with ≥15 weeks follow up, data cutoff Jan. 3, 2020
Excerpt: (§1) FIG. 1 illustrate a schema of a clinical phase 2 study of pembrolizumab plus platinum doublet chemotherapy and concurrent radiotherapy as first-line therapy for unresectable, locally advanced stage III NSCLC (NSCLC).
(§2) This is a non-randomized, open label study. FIG. 1 sets forth a schematic of the study. The primary objective is overall response rate (ORR) per response evaluation criteria in solid tumors (RECIST) version 1.1 by blinded independent central review (BICR). Secondary objectives are progression free survival (PFS), overall survival (OS) and safety. Key eligibility criteria are as set forth in FIG. 1 and include Stage IIIA-C, unresectable, locally advanced, pathologically confirmed, previously untreated NSCLC; measurable disease based on RECIST v1.1; eastern cooperative oncology group (ECOG) performance status 0 or 1; adequate pulmonary function; and no prior systemic immunosuppressive therapy within 7 days.
The table below provides ORR and Duration of Response/Efficacy by BICR per RECIST v1.1, patients with ≥15 weeks follow up (Jan. 3, 2020 data cutoff date)
PFS and OS were assessed in patients with at least 15 weeks follow up. As shown in the table above, at the data cutoff, few patients in either cohort had experienced disease progression or died.

[2] = Phase 2 clinical trial of pembrolizumab plus platinum doublet chemotherapy and concurrent radiotherapy: grade ≥3 pneumonitis and adverse events; assay type: in vivo, human; details: pembrolizumab plus CCRT; for Grade ≥3 pneumonitis (all cause), % [90% CI]: all enrolled patients, data cutoff Jan. 3, 2020
Excerpt: as §1, §2
A secondary primary objective of the study was incidence of grade≥3 pneumonitis, which was assessed in all enrolled patients, regardless of their follow-up duration (see table below). In both cohorts, the rate of grade≥3 pneumonitis was less than 10%. One patient in cohort B had interstitial lung disease; the remaining patients had either pneumonitis or radiation pneumonitis. Incidence of other adverse events was consistent with that reported in other pembrolizumab monotherapy studies in NSCLC. Immune-mediated adverse events and infusion reactions (regardless of attribution to study treatment by the investigator) occurred in 47% of patients in cohort A and 27% in cohort B. 15% of patients in cohort A and 8% in cohort B experienced grade 2-5 immune mediated adverse events or infusion reactions.

[3] = Cohort A, N = 112, ≥15 weeks follow up
[4] = Cohort B, N = 53, ≥15 weeks follow up

For “pembrolizumab: monoclonal antibody directed to the PD-1 receptor; KEYTRUDA, Merck and Co., Inc.”, the “6-mo OS rate” value ([1]; Cohort A, N = 112) was 87% and 87.2%, the “6-mo PFS rate” value ([1]; Cohort A, N = 112) was 81.4% and the “Response duration ≥6 month, %” value ([1]; Cohort A, N = 112) was “(91.1) %”. The “Duration of response, median (range)” value ([1]; Cohort A, N = 112) was “NR (1.6+ to 10.5+)”, the “ORR, % [90% CI]” value ([1]; Cohort A, N = 112) was “(67.0) [58.9-74.3] %” and the “Complete response (CR), %” value [1, 3] was “(2.7) %”. For the same substance, the “No Assessment, %” value [1, 3] was “(8.9) %”, the “Not evaluable, %” value [1, 3] was “(2.7) %” and the “PD, %” value [1, 3] was “(0.9) %”. The “Partial response (PR), %” value [1, 3] was “(64.3) %”, the “6-mo OS rate” value ([1]; Cohort B, N = 53) was 95% and 94.8% and the “6-mo PFS rate” value ([1]; Cohort B, N = 53) was 85.2%. For the same substance, the “Response duration ≥6 month, %” value ([1]; Cohort B, N = 53) was “(100) %”, the “Duration of response, median (range)” value ([1]; Cohort B, N = 53) was “NR (1.7+ to 10.5+)” and the “ORR, % [90% CI]” value ([1]; Cohort B, N = 53) was “(56.6) [44.4-68.2] %”. The “Complete response (CR), %” value [1, 4] was “(3.8) %”, the “No Assessment, %” value [1, 4] was “(9.4) %” and the “Partial response (PR), %” value [1, 4] was “(52.8) %”. The ORR ([1]; both cohorts) was “exceeded 50%”, the “progression free survival rate at 6 months” value ([1]; both cohorts, at least 15 weeks follow up) was “greater than 80%” and the Median overall survival ([1]; either cohort, at data cutoff) was “had not been reached”. The “Median progression free survival” value ([1]; either cohort, at data cutoff) was “had not been reached”, the Estimated response duration ([1]; most patients with a response) was ≥ 6 months and the antitumor activity ([1]; patients with unresectable, locally advanced stage III NSCLC) was “promising antitumor activity”. For the same substance, the “Immune-mediated adverse events and infusion reactions, Grades 3-5, %” value ([2]; Cohort A, N = 112) was “(15.2) %”, the “Immune-mediated adverse events and infusion reactions, Led to death, %” value ([2]; Cohort A, N = 112) was “(3.6) %” and the “Treatment Releated Adverse Events, %” value ([2]; Cohort A, N = 112) was “(93.8) %”. For the same substance, the “Treatment Releated Adverse Events, Grade 3-5, %” value ([2]; Cohort A, N = 112) was “(64.3) %”, the “Treatment Releated Adverse Events, Led to death, %” value ([2]; Cohort A, N = 112) was “(3.6) %” and the “Treatment Releated Adverse Events, Led to discontinuation of any treatment component, %” value ([2]; Cohort A, N = 112) was “(28.6) %”. For the same substance, the “Grade ≥3 pneumonitis (all cause), % [90% CI]” value ([2]; Cohort A, N = 112) was “(8.0) [4.3-13.6] %”, the “Treatment Releated Adverse Events, %” value ([2]; Cohort B, N = 73) was “(87.7) %” and the “Treatment Releated Adverse Events, Grade 3-5, %” value ([2]; Cohort B, N = 73) was “(41.1) %”. For the same substance, the “Treatment Releated Adverse Events, Led to discontinuation of any treatment component, %” value ([2]; Cohort B, N = 73) was “(12.3) %”, the “Grade ≥3 pneumonitis (all cause), % [90% CI]” value ([2]; Cohort B, N = 73) was “(5.5) [1.9-12.1] %” and the “grade 2-5 immune mediated adverse events or infusion reactions, % of patients” value ([2]; cohort A) was 15%. The “grade 2-5 immune mediated adverse events or infusion reactions, % of patients” value ([2]; cohort B) was 8%, the “patients with interstitial lung disease (among grade ≥3 pneumonitis)” value ([2]; cohort B) was “One” and the “incidence of adverse events” value ([2]; compared with CCRT for stage III NSCLC and pembrolizumab monotherapy) was “consistent with the established toxicity profiles”. The “Observed rates of grade ≥3 pneumonitis” value ([2]; compared with immunotherapy combined with CCRT) was “within the expected range”.
